Key:
[1] = xn = mol fraction of the nth substance listed; conditions: 101 kPa, Liquid
[2] = 101.33 kPa, Liquid

O=Cc1ccccc1 [benzaldehyde] + CCCO
[1]
Conditions	mass density [kg/m3]	viscosity [mPa·s]
288.15 K, x2 = 0.099	1038.8	1.689
288.15 K, x2 = 0.193	1021.8	1.661
288.15 K, x2 = 0.3112	997.7	1.622
288.15 K, x2 = 0.3949	980.8	1.637
288.15 K, x2 = 0.5004	956.4	1.645
288.15 K, x2 = 0.5997	932.9	1.683
288.15 K, x2 = 0.6932	–	1.774
288.15 K, x2 = 0.8026	875.4	1.873
288.15 K, x2 = 0.9046	843.1	2.075
293.15 K, x2 = 0.0988	1034.2	1.536
293.15 K, x2 = 0.1927	1017	1.505
293.15 K, x2 = 0.3108	993.2	1.468
293.15 K, x2 = 0.3944	976.2	1.475
293.15 K, x2 = 0.5	951.6	1.483
293.15 K, x2 = 0.5992	928.6	1.501
293.15 K, x2 = 0.6927	–	1.588
293.15 K, x2 = 0.8023	871.4	1.669
293.15 K, x2 = 0.9045	839.1	1.84
298.15 K, x2 = 0.099	1029.9	1.405
298.15 K, x2 = 0.1929	1012.8	1.373
298.15 K, x2 = 0.3111	989.2	1.337
298.15 K, x2 = 0.3948	971.3	1.333
298.15 K, x2 = 0.5003	947	1.342
298.15 K, x2 = 0.5996	923.7	1.363
298.15 K, x2 = 0.693	–	1.423
298.15 K, x2 = 0.8025	867.6	1.491
298.15 K, x2 = 0.9046	835.3	1.64
303.15 K, x2 = 0.0989	1025.9	1.292
303.15 K, x2 = 0.1927	1008.1	1.258
303.15 K, x2 = 0.3108	984.8	1.224
303.15 K, x2 = 0.3945	967	1.216
303.15 K, x2 = 0.5	942.9	1.223
303.15 K, x2 = 0.5993	919.5	1.237
303.15 K, x2 = 0.6928	–	1.287
303.15 K, x2 = 0.8023	863.6	1.342
303.15 K, x2 = 0.9045	831.6	1.491
308.15 K, x2 = 0.0988	1021.4	1.193
308.15 K, x2 = 0.1926	1003.4	1.158
308.15 K, x2 = 0.3106	980.1	1.126
308.15 K, x2 = 0.3942	962.7	1.12
308.15 K, x2 = 0.4997	937.8	1.117
308.15 K, x2 = 0.599	915.5	1.128
308.15 K, x2 = 0.6925	–	1.169
308.15 K, x2 = 0.8022	858.9	1.215
308.15 K, x2 = 0.9044	827.3	1.317
313.15 K, x2 = 0.0986	1015.1	1.104
313.15 K, x2 = 0.1923	997.8	1.069
313.15 K, x2 = 0.3102	973.8	1.039
313.15 K, x2 = 0.3938	956.5	1.024
313.15 K, x2 = 0.4993	934	1.026
313.15 K, x2 = 0.5986	910.9	1.033
313.15 K, x2 = 0.6922	894.8	1.063
313.15 K, x2 = 0.8019	853.6	1.099
313.15 K, x2 = 0.9043	823.6	1.188

O=Cc1ccccc1 [benzaldehyde] + ClCCCl
[1]
Conditions	mass density [kg/m3]	viscosity [mPa·s]
288.15 K, x1 = 0.1005	1233	0.9491
288.15 K, x1 = 0.2068	1207.2	1.034
288.15 K, x1 = 0.2964	1186.5	1.097
288.15 K, x1 = 0.3902	1166	1.171
288.15 K, x1 = 0.4888	1146.4	1.27
288.15 K, x1 = 0.5923	1125.5	1.348
288.15 K, x1 = 0.7012	1107.6	1.454
288.15 K, x1 = 0.8159	1086.7	1.58
288.15 K, x1 = 0.9061	1070.6	1.66
293.15 K, x1 = 0.1007	1227.6	0.8854
293.15 K, x1 = 0.2072	1200	0.9592
293.15 K, x1 = 0.2969	1180.5	1.017
293.15 K, x1 = 0.3909	1161.8	1.085
293.15 K, x1 = 0.4894	1139.5	1.168
293.15 K, x1 = 0.5929	1119.9	1.242
293.15 K, x1 = 0.7017	1102.2	1.335
293.15 K, x1 = 0.8163	1082	1.445
293.15 K, x1 = 0.9063	1066.4	1.517
298.15 K, x1 = 0.1006	1220.5	0.8213
298.15 K, x1 = 0.2069	1196.1	0.8951
298.15 K, x1 = 0.2965	1174.6	0.9471
298.15 K, x1 = 0.3904	1155.5	1.008
298.15 K, x1 = 0.4889	1133.4	1.08
298.15 K, x1 = 0.5924	1117.3	1.151
298.15 K, x1 = 0.7013	1098.6	1.233
298.15 K, x1 = 0.816	1077.9	1.328
298.15 K, x1 = 0.9061	1063.1	1.394
303.15 K, x1 = 0.1009	1214.3	0.7706
303.15 K, x1 = 0.2074	1190	0.8362
303.15 K, x1 = 0.2972	1169.8	0.8848
303.15 K, x1 = 0.3911	1150.1	0.9515
303.15 K, x1 = 0.4897	1126.5	1.003
303.15 K, x1 = 0.5932	1112.7	1.07
303.15 K, x1 = 0.702	1094.4	1.143
303.15 K, x1 = 0.8165	1073.2	1.225
303.15 K, x1 = 0.9064	1058.5	1.285
308.15 K, x1 = 0.1011	1206.5	0.726
308.15 K, x1 = 0.2078	1182.6	0.7824
308.15 K, x1 = 0.2976	1162.9	0.828
308.15 K, x1 = 0.3917	1144.1	0.8897
308.15 K, x1 = 0.4903	1121	0.9346
308.15 K, x1 = 0.5937	1107.8	0.998
308.15 K, x1 = 0.7025	1091	1.067
308.15 K, x1 = 0.8168	1068.5	1.135
308.15 K, x1 = 0.9066	1053	1.189
313.15 K, x1 = 0.1013	1198	0.6795
313.15 K, x1 = 0.2083	1173.6	0.7327
313.15 K, x1 = 0.2983	1153.9	0.777
313.15 K, x1 = 0.3924	1136.7	0.8272
313.15 K, x1 = 0.491	1115.5	0.8725
313.15 K, x1 = 0.5945	1102.2	0.9318
313.15 K, x1 = 0.7031	1085.5	0.9944
313.15 K, x1 = 0.8173	1063.1	1.054
313.15 K, x1 = 0.9069	1049.7	1.107

CCCO [propan-1-ol]
[2]
Conditions	mass density [kg/m3]	viscosity [mPa·s]
288.15 K	810.5	2.42
293.15 K	806.5	2.137
298.15 K	803.2	1.894
303.15 K	799.3	1.684
308.15 K	795.2	1.504
313.15 K	790.4	1.352

From the NIST ThermoML archive (doi:10.1021/je900212d)
